The values below come from ChEMBL document CHEMBL1151970, “Cardioprotection with the parrodiene 2,4,6-octatrienal and its potassium salt through activation of the Akt-Bcl-2 survival pathway” (2009).

Activity calls are given as the source filed them. The calls are words filed in the database; no cut-off is given here.

Assay [1] relates to Heart. As to the kind of experiment: Cardioprotective activity in Langendorff perfused Sprague-Dawley rat heart assessed as recovery of left ventricular developed pressure at 50 mM preperfused 15 mins before global ischemia challenge for 30 mins followed by 120 mins of reperfusion. Type of assay: functional, tissue-based.
The test system of assay [2] is Heart. The assay is described as follows: Cardioprotective activity in Langendorff perfused Sprague-Dawley rat heart assessed as recovery of first derivative of left ventricular developed pressure at 50 mM preperfused 15 mins before global ischemia challenge for 30 mins followed by 120 mins of reperfusion. Format: functional, tissue-based.
For assay [3], the system named is Heart. The assay is described as follows: Cardioprotective activity in Langendorff perfused Sprague-Dawley rat heart assessed as recovery of aortic pressure at 50 mM preperfused 15 mins before global ischemia challenge for 30 mins followed by 120 mins of reperfusion. Type of assay: functional, tissue-based.
In assay [4] the test system is Heart. As to the kind of experiment: Cardioprotective activity in Langendorff perfused Sprague-Dawley rat heart assessed as reduction in myocardial infarction size at 50 mM preperfused 15 mins before global ischemia challenge for 30 mins followed by 120 mins of reperfusion by triphenyl tetrazolium chloride method. Type of assay: functional. Details: scale not given: the % may be the effect or the level left.

The test system of assay [5] is Heart. The assay is described as follows: Cardioprotective activity in Langendorff perfused Sprague-Dawley rat heart assessed as reduction in number of cardiomycotic apoptic cells at 50 mM preperfused 15 mins before global ischemia challenge for 30 mins followed by 120 mins of reperfusion by TUNEL assay. Format: functional. Details: scale not given: the % may be the effect or the level left.

Assay [6] relates to Heart. As to the kind of experiment: Cardioprotective activity in Langendorff perfused Sprague-Dawley rat heart assessed as prevention of cytochrom c release from cytosolic fraction at 50 mM preperfused 15 mins before global ischemia challenge for 30 mins followed by 120 mins of reperfusion by Western blotting. Format: functional, tissue-based. A general note: A western blot detects proteins with antibodies after separation by electrophoresis.

Assay [7] relates to Heart. As to the kind of experiment: Cardioprotective activity in Langendorff perfused Sprague-Dawley rat heart assessed as reduction of pro-caspase 3 activation in ischemic reperfused myocardium at 50 mM preperfused 15 mins before global ischemia challenge for 30 mins followed by 120 mins of reperfusion by Western blotting. Format: functional, tissue-based.
Assay [8] deals with Heart. As to the kind of experiment: Cardioprotective activity in Langendorff perfused Sprague-Dawley rat heart assessed as reduction of caspase 3 activation at 50 mM preperfused 15 mins before global ischemia challenge for 30 mins followed by 120 mins of reperfusion by Western blotting. Format: functional, tissue-based.
For assay [9], the system named is Heart. As to the kind of experiment: Cardioprotective activity in Langendorff perfused Sprague-Dawley rat heart assessed as activation of Akt phosphorylation at 50 mM preperfused 15 mins before global ischemia challenge for 30 mins followed by 120 mins of reperfusion. Format: functional, tissue-based.
Assay [10] has as its system Heart. The assay is described as follows: Cardioprotective activity in Langendorff perfused Sprague-Dawley rat heart assessed as […] of Bcl2 at 50 mM preperfused 15 mins before global ischemia challenge for 30 mins followed by 120 mins of reperfusion by Western blotting. Format: functional, tissue-based.
The subject of assay [11] is Heart. The assay is described as follows: Cardioprotective activity in Langendorff perfused Sprague-Dawley rat heart assessed as down regulation of HO1 at 50 mM preperfused 15 mins before global ischemia challenge for 30 mins followed by 120 mins of reperfusion by Western blotting. Type of assay: functional, tissue-based.

Consider `C/C=C/C=C/C=C/C=O`, for which the outcome in [1], in assay [2], in assay [3], in assay [6], in [7] and in [8] was Active. For the same compound, the result in assay [9], in assay [10] and in assay [11] was Active. Moreover, the Activity is 16% in assay [4] and 15% in assay [5].
Take `C/C=C/C=C/C=C/C(=O)[O-].[K+]`: the result in assay [1], in [2], in assay [3], in assay [6], in assay [7] and in assay [8] was Active. For the same compound, the outcome in assay [9], in assay [10] and in assay [11] was Active. For the same compound, the Activity in assay [4] is reported as 15%; in [5] it was 13.6%.
